Like-named read-outs stand apart in the source and are kept apart here.
Key:
[1] = Study 1 (NCT03836599) safety: adverse events, laboratory, vital signs, ECG; type: in vivo, human; details: Study 1, up to 24 mg verinurad + 300 mg allopurinol
Description: (§1) Cohort 1 was randomized, double‐blind, and placebo‐controlled and consisted of 12 healthy Asian participants, of whom <50% were Chinese. Cohort 2 was open‐label, consisting of 9 healthy Chinese participants.
(§2) Analysis of safety was based on adverse events (AEs), laboratory assessments (including hematology, clinical chemistry, urinalysis, and coagulation), vital signs (systolic and diastolic blood pressure, and pulse rate), electrocardiogram (ECG), and physical examination. AEs were coded using the Medical Dictionary for Regulatory Activities. In Study 1, a treatment‐emergent AE was defined as an AE with onset (start date/time) after the first dose of study drug in the run‐in period (day –7). In Study 2, AEs were recorded from the time the participant signed the informed consent through to the follow‐up visit. ECGs were obtained after the participant rested in the supine position. Digital ECG analysis in Study 1 was performed at the AstraZeneca ECG Center.
(§3) Safety was assessed in the safety analysis set of each study, comprising all participants who received ≥1 dose of study drug. Continuous variables are summarized using descriptive statistics, and categorical variables are summarized as frequency and proportion.

[2] = Study 2 (NCT02608710) safety: adverse events, laboratory, vital signs, ECG; type: in vivo, human
Experimental: (§4) Study 2 was a Phase 1, randomized, open‐label study comprising of three parts. Parts 1 and 2 assessed the pharmacokinetics and pharmacodynamics of single and multiple doses of verinurad, respectively (Figure 1). Part 3 assessed the effect of food on the pharmacokinetics and pharmacodynamics of verinurad and is not reported further herein. In the single‐dose assessment, […] were randomized 1:1:1:1:1:1 into 1 of 6 treatment sequences with a single dose of 4.5, 6, or 12 mg verinurad, administered on days 1, 5, and 9 (Figure 1). In the multiple‐dose assessment, 8 participants received 12 mg verinurad QD on days 1 to 7.
as §2, §3

[3] = Study 1 plasma pharmacokinetics of verinurad, allopurinol and oxypurinol; type: in vivo, human; details: for Tmax: median (range); for Cmax / AUC: geometric mean (gCV%)
Experimental: as §1
(§5) In both studies, participants received verinurad capsules with an extended‐release profile. On the days of pharmacokinetic sampling, treatment was given in fasting state.
Verinurad plasma samples were analyzed using similar methodologies as described by Shen et al.[13] with lower and upper limits of quantification of 0.100 ng/mL and 40.0 ng/mL, respectively.

[4] = Study 2 plasma pharmacokinetics of verinurad; type: in vivo, human; details: healthy non-Asian participants; for Tmax: median (range); for half-life: read-out: t½λz (converted)
Experimental: as §4, §5
Verinurad plasma samples were analyzed using similar methodologies as described by Shen et al.[13] with lower and upper limits of quantification of 0.100 ng/mL and 40.0 ng/mL, respectively. The ability to dilute overrange samples was also confirmed. […].
(§6) Pharmacokinetics and pharmacodynamics were assessed in all participants who received ≥1 dose of study drug and had ≥1 corresponding assessment.

[5] = system: serum uric acid (sUA) and urinary uric acid (uUA); test: Study 2 pharmacodynamics: serum and urinary uric acid; type: in vivo, human; details: healthy non-Asian participants
Experimental: as §4
Key pharmacodynamic parameters included time‐matched percentage change from baseline (day –1) at each timepoint in sUA concentration, maximum observed percentage change from baseline (time‐matched, day –1) in sUA concentration (Emax,CB) and time to Emax,CB, amount of UA recovered in urine (Aeur), and fractional excretion of UA (FEUA).
as §6

[6] = design: method as in PMID 29949102; details: cited from earlier work
[7] = design: method as in PMID 29950814; details: cited from earlier work
[8] = design: method as in PMID 30334639; details: patients with gout, 1 Japanese study and 1 Western study; cited from earlier work
[9] = multiple-dose assessment, 12 mg verinurad QD (n = 8)
[10] = single-dose assessment, 4.5 mg verinurad (n = 16)
[11] = single-dose assessment, 6 mg verinurad (n = 16)
[12] = single-dose assessment, 12 mg verinurad (n = 16)
[13] = healthy Asian participants, 24 mg verinurad + 300 mg allopurinol QD, Day 7
[14] = healthy Chinese participants, 12 mg verinurad + 300 mg allopurinol day 1 and QD days 3-9, Day 9, arithmetic mean (SD)
[15] = healthy Chinese participants, 12 mg verinurad + 300 mg allopurinol, Day 1, arithmetic mean (SD)
[16] = multiple-dose assessment 12 mg verinurad QD, Day 7, geometric mean (gCV%)
[17] = single dose 6 mg verinurad, geometric mean (gCV%)
[18] = single dose 12 mg verinurad, geometric mean (gCV%)
[19] = 12 mg verinurad QD, day 1, 3 to 6 h post-dose
[20] = 12 mg verinurad QD, day 7, 3 to 6 h post-dose
[21] = single dose 4.5 mg verinurad, 3 to 6 h post-dose
[22] = single dose 6 mg verinurad, 3 to 6 h post-dose
[23] = single dose 12 mg verinurad, 3 to 6 h post-dose
[24] = single dose 15 mg verinurad, moderate renal impairment
[25] = single dose 15 mg verinurad, severe renal impairment
[26] = single dose, mild renal impairment
[27] = healthy Japanese male participants, day 6 after QD dosing with 15 mg verinurad modified-release formulation

## CC(C)(Sc1ccncc1-c1ccc(C#N)c2ccccc12)C(=O)O [verinurad]
[1]
  tolerability: well tolerated
[2]; human, in vivo
  diarrhea, participants: 2
[2]; in vivo
  findings in laboratory parameters, vital signs, 12-lead ECG variables: No clinically significant findings
[2]; [9]
  Death, Events: 0 Events
  Death, n (%): 0 n (%)
[2]; [10]
  Death, Events: 0 Events
  Death, n (%): 0 n (%)
[2]; [11]
  Death, Events: 0 Events
  Death, n (%): 0 n (%)
[2]; [12]
  Death, Events: 0 Events
  Death, n (%): 0 n (%)
[3]; healthy Asian participants, 24 mg verinurad + 300 mg allopurinol QD, Day 1, arithmetic mean (SD)
  CL/F: 48.6 (11.3) L/h
[3]; healthy Asian participants, 24 mg verinurad + 300 mg allopurinol QD, Day 1
  Tmax: 5.00 (4.98–6.02) h
[3]; healthy Asian participants, 24 mg verinurad + 300 mg allopurinol QD, Day 7, arithmetic mean (SD)
  CL/F: 50.9 (9.01) L/h
[3]; [13]
  Cmax: 73.6 (29.0) ng/mL
  Tmax: 5.00 (4.00–6.00) h
[3]; [14]
  CL/F: 47.9 (17.2) L/h
  t½λz: 6.27 (0.647) h
[3]; [15]
  CL/F: 43.4 (16.2) L/h
  t½λz: 12.9 (3.08) h
[3]; healthy Chinese participants, 12 mg verinurad + 300 mg allopurinol, Day 1
  Tmax: 5.00 (4.00–6.00) h
[3]; human, plasma, oral, healthy Asian participants, 24 mg verinurad + 300 mg allopurinol QD, Day 1, arithmetic mean (SD), read-out: t½λz (converted)
  half-life: 5.98 h
[3]; human, plasma, oral, healthy Asian participants, 24 mg verinurad + 300 mg allopurinol QD, Day 1, read-out: AUC
  AUC: 506 ng·h/mL
[3]; human, plasma, oral, healthy Asian participants, 24 mg verinurad + 300 mg allopurinol QD, Day 1, read-out: AUCτ
  AUC: 415 ng·h/mL
[3]; human, plasma, oral, healthy Asian participants, 24 mg verinurad + 300 mg allopurinol QD, Day 1, read-out: Cmax
  Cmax: 71.2 ng/mL
[3]; human, plasma, oral, healthy Asian participants, 24 mg verinurad + 300 mg allopurinol QD, Day 7, read-out: AUCτ
  AUC: 478 ng·h/mL
[3]; human, plasma, oral, healthy Chinese participants, 12 mg verinurad + 300 mg allopurinol day 1 and QD days 3-9, Day 9, read-out: AUCτ
  AUC: 264 ng·h/mL
[3]; human, plasma, oral, healthy Chinese participants, 12 mg verinurad + 300 mg allopurinol day 1 and QD days 3-9, Day 9, read-out: Cmax
  Cmax: 42 ng/mL
[3]; human, plasma, oral, healthy Chinese participants, 12 mg verinurad + 300 mg allopurinol day 1 and QD days 3-9, Day 9, read-out: tmax
  Tmax: 5.5 h
[3]; human, plasma, oral, healthy Chinese participants, 12 mg verinurad + 300 mg allopurinol, Day 1, read-out: AUC
  AUC: 295 ng·h/mL
[3]; human, plasma, oral, healthy Chinese participants, 12 mg verinurad + 300 mg allopurinol, Day 1, read-out: AUCτ
  AUC: 226 ng·h/mL
[3]; human, plasma, oral, healthy Chinese participants, 12 mg verinurad + 300 mg allopurinol, Day 1, read-out: Cmax
  Cmax: 47.6 ng/mL
[4]; multiple-dose assessment 12 mg verinurad QD, Day 1, geometric mean (gCV%)
  CL/F: 52.2 (20.2) L/h
[4]; multiple-dose assessment 12 mg verinurad QD, Day 1
  Tmax: 5.00 (2.00–6.00) h
[4]; [16]
  CL/F: 44.2 (27.3) L/h
  t½λz: 10.9 (19.1) h
[4]; single dose 4.5 mg verinurad, geometric mean (gCV%)
  CL/F: 51.8 (27.9) L/h
[4]; single dose 4.5 mg verinurad
  Tmax: 4.00 (2.00–6.00) h
[4]; [17]
  CL/F: 58.8 (40.5) L/h
  Cmax: 13.4 (67.6) ng/mL
[4]; single dose 6 mg verinurad
  Tmax: 4.00 (2.00–6.05) h
[4]; [18]
  CL/F: 58.3 (44.4) L/h
  t½λz: 12.2 (67.7) h
[4]; single dose 12 mg verinurad
  Tmax: 4.00 (2.00–6.00) h
[4]; human, plasma, oral, 4.5 mg, single dose 4.5 mg verinurad, geometric mean (gCV%), read-out: AUC
  AUC: 86.8 ng·h/mL
[4]; human, plasma, oral, 4.5 mg, single dose 4.5 mg verinurad, geometric mean (gCV%), read-out: AUCτ
  AUC: 68.1 ng·h/mL
[4]; human, plasma, oral, 4.5 mg, single dose 4.5 mg verinurad, geometric mean (gCV%), read-out: Cmax
  Cmax: 11.8 ng/mL
[4]; human, plasma, oral, 6 mg, single dose 6 mg verinurad, geometric mean (gCV%), read-out: AUC
  AUC: 102 ng·h/mL
[4]; human, plasma, oral, 6 mg, single dose 6 mg verinurad, geometric mean (gCV%), read-out: AUCτ
  AUC: 80.8 ng·h/mL
[4]; human, plasma, oral, 12 mg, multiple-dose assessment 12 mg verinurad QD, Day 1, geometric mean (gCV%), read-out: AUC
  AUC: 230 ng·h/mL
[4]; human, plasma, oral, 12 mg, multiple-dose assessment 12 mg verinurad QD, Day 1, geometric mean (gCV%), read-out: AUCτ
  AUC: 209 ng·h/mL
[4]; human, plasma, oral, 12 mg, multiple-dose assessment 12 mg verinurad QD, Day 1, geometric mean (gCV%), read-out: Cmax
  Cmax: 29.9 ng/mL
[4]; human, plasma, oral, 12 mg, multiple-dose assessment 12 mg verinurad QD, Day 7, geometric mean (gCV%), read-out: AUCτ
  AUC: 271 ng·h/mL
[4]; human, plasma, oral, 12 mg, multiple-dose assessment 12 mg verinurad QD, Day 7, geometric mean (gCV%), read-out: Cmax
  Cmax: 36.3 ng/mL
[4]; human, plasma, oral, 12 mg, single dose 12 mg verinurad, geometric mean (gCV%), read-out: AUC
  AUC: 206 ng·h/mL
[4]; human, plasma, oral, 12 mg, single dose 12 mg verinurad, geometric mean (gCV%), read-out: AUCτ
  AUC: 168 ng·h/mL
[4]; human, plasma, oral, 12 mg, single dose 12 mg verinurad, geometric mean (gCV%), read-out: Cmax
  Cmax: 28.6 ng/mL
[4]; human, plasma, oral, 12 mg, single dose of verinurad 4.5, 6, or 12 mg, read-out: geometric mean AUCτ, range over doses
  AUC: 68.1 to 168 ng·h/mL
[4]; human, plasma, oral, 12 mg, single dose of verinurad 4.5, 6, or 12 mg, read-out: geometric mean Cmax, range over doses
  Cmax: 11.8 to 28.6 ng/mL
[4]; human, plasma, oral, multiple-dose assessment 12 mg verinurad QD, Day 1, geometric mean (gCV%)
  half-life: 7.15 h
[4]; human, plasma, oral, multiple-dose assessment 12 mg verinurad QD, Day 7, read-out: tmax
  Tmax: 6 h
[4]; human, plasma, oral, single dose 4.5 mg verinurad, geometric mean (gCV%)
  half-life: 12.7 h
[4]; human, plasma, oral, single dose 6 mg verinurad, geometric mean (gCV%)
  half-life: 13.6 h
[5]; 12 mg verinurad QD, Day 1
  tEmax,CB, mean (SD): 9.0 (1.0) hour
[5]; 12 mg verinurad QD, Day 7
  tEmax,CB, mean (SD): 7.0 (3.0) hour
[5]; [19]
  mean Aeur at peak, higher compared with day –1: 353%
  mean FEUA at peak: 33.3%
[5]; [20]
  mean Aeur at peak, higher compared with day –1: 81.3%
  mean FEUA at peak: 31.2%
[5]; single dose 4.5 mg verinurad
  tEmax,CB, mean (SD): 8.0 (2.1) hour
[5]; [21]
  mean Aeur at peak, higher compared with day –1: 219%
  mean FEUA at peak: 21.5%
[5]; single dose 6 mg verinurad
  tEmax,CB, mean (SD): 8.0 (2.0) hour
[5]; [22]
  mean Aeur at peak, higher compared with day –1: 267%
  mean FEUA at peak: 24.8%
[5]; single dose 12 mg verinurad
  tEmax,CB, mean (SD): 9.0 (1.5) hour
[5]; [23]
  mean Aeur at peak, higher compared with day –1: 338%
  mean FEUA at peak: 33.3%
[6]; [24]
  AUC increase compared with normal renal function: 148%
  Cmax increase compared with normal renal function: 73%
[6]; [25]
  AUC increase compared with normal renal function: 130%
  Cmax increase compared with normal renal function: 128%
[6]; [26]
  AUC increase compared with normal renal function: 24%
  Cmax increase compared with normal renal function: 53%
[7]; after QD doses
  accumulation for AUC: 1.3 fold
  accumulation for Cmax: ~ 1.2 fold
[7]; [27]
  AUCτ: 239 ng·h/mL
  Cmax: 38.2 ng/mL
[8]
  verinurad exposure, higher than in Western patients: > 2 fold
